{"source": "ChEMBL document CHEMBL6177981", "about": "“Bardoxolone Derivatives as Novel Pseudo-Natural Necroptosis Inhibitors by Destabilizing HSP90 Client Proteins” (J Med Chem, 2025)", "key": {"[1]": {"test": "Acute toxicity in male C57BL/6J mouse assessed as structural changes in heart at 2 g/Kg, IG measured after 72 hrs by H and E staining based analysis", "format": "tissue-based", "conditions": "in vivo, po, 2000 mg/kg"}, "HT-29 [2]": {"tested_on": "HT-29", "test": "Effect on MLKL protein level in human HT-29 cell precipitate at 6 uM measured after 9 hrs by Western blot analysis", "format": "functional, cell-based"}, "Mus musculus [3]": {"tested_on": "Mus musculus", "test": "(§1) Anti-necroptotic activity in TNFalpha/Z-VAD-FMK induced SIRS male C57BL/6J mouse model assessed as reduction in IL6 in serum pre-administered orally with compound via gavage for 2 hrs followed by […] of Z-VAD-FMK stimulation for 15 mins with subsequent TNF-alpha stimulation for 1 hrs and re-current […] of Z-VAD-FMK stimulation and measured after 8 hrs post SIRS induction by ELISA", "format": "functional, organism-based", "conditions": "dose 2.5-10 mg/kg, route po, time 10.0 hrs"}, "Mus musculus [4]": {"tested_on": "Mus musculus", "test": "as §1, with “survival rate at 10 mg/kg, po” for “reduction in IL6 in serum”, “pre-administered” for “pre-administered orally”, “relative to control” for “by ELISA”", "format": "functional", "conditions": "time 10 hrs"}, "HT-29 [5]": {"tested_on": "HT-29", "test": "Downregulation of RIPK3 protein level in human HT-29 cells at 3 to 6 uM incubated for 9 hrs by Western blot analysis", "format": "functional, cell-based", "conditions": "dose 3-6 µM"}, "HT-29 [6]": {"tested_on": "HT-29", "test": "Downregulation of RIPK1 protein level in human HT-29 cells incubated for 9 hrs by Western blot analysis", "format": "functional, cell-based", "conditions": "dose 0.75-6 µM"}, "HeLa [7]": {"tested_on": "HeLa", "test": "Inhibition of RIPK1 protein expression in RIPK3-deficient human HeLa cells at 6 uM preincubated with NH4Cl for 2 hrs followed by compound addition and measured after 9 hrs by Western blot analysis", "format": "functional, cell-based"}, "HT-29 [8]": {"tested_on": "HT-29", "test": "Downregulation of MLKL protein level in human HT-29 cells at 3 to 6 uM incubated for 9 hrs by Western blot analysis", "format": "functional, cell-based", "conditions": "dose 3-6 µM"}, "Mus musculus [9]": {"tested_on": "Mus musculus", "test": "as §1, with “protection from hypothermia at 2.5 to 10 mg/kg, po” for “reduction in IL6 in serum”, “pre-administered” for “pre-administered orally”, “induction” for “induction by ELISA”", "format": "functional, organism-based", "conditions": "dose 2.5-10 mg/kg, time 10.0 hrs"}, "HT-29 [10]": {"tested_on": "HT-29", "test": "Downregulation of RIPK1 protein level in human HT-29 cell precipitate at 6 uM measured after 9 hrs by Western blot analysis", "format": "functional, cell-based"}, "HeLa [11]": {"tested_on": "HeLa", "test": "Inhibition of MLKL protein expression in RIPK3-deficient human HeLa cells at 0.75 to 6 uM incubated for 9 hrs by Western blot analysis", "format": "functional, cell-based", "conditions": "dose 0.75-6 µM"}, "RAW264.7": {"tested_on": "RAW264.7", "test": "Anti-necroptotic activity in LZ-induced mouse RAW264.7 cells assessed as increase in cell viability at 5 to 10 uM preincubated with compound followed by LPS and Z-VAD-FMK stimulation and measured after 16 hrs by CellTiter-Lumi luminescent cell viability assay", "format": "functional, cell-based", "conditions": "dose 5-10 µM"}, "[12]": {"test": "Acute toxicity in male C57BL/6J mouse assessed as hemorrhage in heart at 2 g/Kg, IG measured after 72 hrs by H and E staining based analysis", "format": "tissue-based", "conditions": "in vivo, po, 2000 mg/kg"}, "[13]": {"test": "Acute toxicity in male C57BL/6J mouse assessed as hemorrhage in brain at 2 g/Kg, IG measured after 72 hrs by H and E staining based analysis", "format": "tissue-based", "conditions": "in vivo, po, 2000 mg/kg"}, "[14]": {"test": "Acute toxicity in male C57BL/6J mouse assessed as structural changes in intestine at 2 g/Kg, IG measured after 72 hrs by H and E staining based analysis", "format": "tissue-based", "conditions": "in vivo, po, 2000 mg/kg"}, "[15]": {"test": "Acute toxicity in male C57BL/6J mouse assessed as effect on ALP level at 2 g/Kg, IG measured after 72 hrs", "conditions": "in vivo, po, 2000 mg/kg"}, "HT-29 [16]": {"tested_on": "HT-29", "test": "Downregulation of MLKL protein level in human HT-29 cells incubated for 9 hrs by Western blot analysis", "format": "functional, cell-based", "conditions": "dose 0.75-6 µM"}, "[17]": {"test": "Cmax in Sprague-Dawley rat at 10 mg/kg, IG measured after 24 hrs by LC-MS/MS analysis", "format": "ADME, organism-based", "conditions": "in vivo, po"}, "HT-29 [18]": {"tested_on": "HT-29", "test": "Anti-necroptotic activity in TSZ-induced human HT-29 cells assessed as cell survival at 10 uM measured after 12 hrs by Live-cell super-resolution panoramic microscopic analysis (reference value: 8 hrs)", "format": "functional"}, "HT-29 [19]": {"tested_on": "HT-29", "test": "Upregulation of HSP70 protein level in TSZ-induced human HT-29 cells at 0.625 to 10 uM preincubated with compound followed by Z-VAD-FMK, SM164 and TNFalpha stimulation and measured after 6 hrs by Western blot analysis", "format": "functional, cell-based", "conditions": "dose 0.625-10 µM"}, "Mus musculus [20]": {"tested_on": "Mus musculus", "test": "as §1, with “IL-1beta” for “IL6”", "format": "functional, organism-based", "conditions": "dose 2.5-10 mg/kg, route po, time 10.0 hrs"}, "[21]": {"test": "Acute toxicity in male C57BL/6J mouse assessed as hemorrhage in intestine at 2 g/Kg, IG measured after 72 hrs by H and E staining based analysis", "format": "tissue-based", "conditions": "in vivo, po, 2000 mg/kg"}, "HT-29 [22]": {"tested_on": "HT-29", "test": "Downregulation of RIPK3 protein level in human HT-29 cells at 6 uM preincubated with Z-VAD-FMK for 2 hrs followed by compound addition and measured after 9 hrs by Western blot analysis", "format": "functional, cell-based"}, "HT-29 [23]": {"tested_on": "HT-29", "test": "Downregulation of RIPK1 protein level in human HT-29 cell supernatant at 6 uM measured after 9 hrs by Western blot analysis", "format": "functional, cell-based"}, "HeLa [24]": {"tested_on": "HeLa", "test": "Inhibition of RIPK1 protein expression in RIPK3-deficient human HeLa cells at 6 uM preincubated with MG132 for 2 hrs followed by compound addition and measured after 9 hrs by Western blot analysis", "format": "functional, cell-based"}, "[25]": {"target": "Heat shock protein HSP90 (Homo sapiens) (UniProt P07900+P08238)", "test": "Inhibition of HSP90 in TSZ-induced human HT-29 cells assessed as reduction in EGFR protein level preincubated with compound followed by Z-VAD-FMK, SM164 and TNFalpha stimulation and measured after 6 hrs by Western blot analysis", "format": "cell-based", "conditions": "dose 0.625-10 µM"}, "HT-29 [26]": {"tested_on": "HT-29", "test": "Downregulation of MLKL protein level in human HT-29 cells at 6 uM preincubated with MG132 for 2 hrs followed by compound addition and measured after 9 hrs by Western blot analysis", "format": "functional, cell-based"}, "HeLa [27]": {"tested_on": "HeLa", "test": "Upregulation of HSP70 expression in RIPK3-deficient human HeLa cells at 1.5 uM incubated for 9 hrs by Western blot analysis", "format": "functional, cell-based"}, "HT-29 [28]": {"tested_on": "HT-29", "test": "Downregulation of total RIPK3 protein level in TSZ-induced human HT-29 cells at 10 uM preincubated with compound followed by Z-VAD-FMK, SM164 and TNFalpha stimulation and measured after 6 hrs by Western blot analysis", "format": "functional, cell-based"}, "[29]": {"test": "Inhibition of TSZ-mediated necrosome formation in human HT-29 cells at 10 uM preincubated with compound followed by Z-VAD-FMK, SM164 and TNFalpha stimulation and measured after 6 hrs by co-immunoprecipitation based Western blot analysis relative to control", "format": "functional"}, "HT-29 [30]": {"tested_on": "HT-29", "test": "Downregulation of RIPK1 protein level in human HT-29 cells at 6 uM preincubated with MLN4924 for 2 hrs followed by compound addition and measured after 9 hrs by Western blot analysis", "format": "functional, cell-based"}, "[31]": {"test": "Acute toxicity in male C57BL/6J mouse assessed as effect on AST level at 2 g/Kg, IG measured after 72 hrs", "conditions": "in vivo, po, 2000 mg/kg"}, "HeLa [32]": {"tested_on": "HeLa", "test": "Inhibition of MLKL protein expression in RIPK3-deficient human HeLa cells at 6 uM preincubated with MG132 for 2 hrs followed by compound addition and measured after 9 hrs by Western blot analysis", "format": "functional, cell-based"}, "[33]": {"test": "Acute toxicity in male C57BL/6J mouse assessed as structural changes in lung at 2 g/Kg, IG measured after 72 hrs by H and E staining based analysis", "format": "tissue-based", "conditions": "in vivo, po, 2000 mg/kg"}}, "note": "The source made the active and inactive calls. No cut-off for these calls is given here."}
{"smiles": "Cn1ccc(-c2ccc(NC(=O)[C@]34CCC(C)(C)C[C@H]3[C@H]3C(=O)C=C5[C@@]6(C)C=C(C#N)C(=O)C(C)(C)[C@@H]6CC[C@@]5(C)[C@]3(C)CC4)cc2)n1", "values": [{"measurement": "Activity", "setting": "[1]", "value": "Non-toxic"}, {"measurement": "Activity", "setting": "HT-29 [2]", "value": "inactive"}, {"measurement": "Activity", "setting": "Mus musculus [3]", "value": "Dose-dependent-effect"}, {"measurement": "survival at 10 mg/kg", "setting": "Mus musculus [4]", "value": 100, "unit": "%"}, {"measurement": "Activity", "setting": "HT-29 [5]", "value": "Active; Significant Effect Observed"}, {"measurement": "Activity", "setting": "HT-29 [6]", "value": "Dose-dependent-effect"}, {"measurement": "inhibition", "setting": "HeLa [7]", "value": "Active"}, {"measurement": "Activity", "setting": "HT-29 [8]", "value": "Active; Significant Effect Observed"}, {"measurement": "Activity", "setting": "Mus musculus [9]", "value": "Active"}, {"measurement": "Activity", "setting": "HT-29 [10]", "value": "inactive"}, {"measurement": "inhibition", "setting": "HeLa [11]", "value": "Active"}, {"measurement": "Activity", "setting": "RAW264.7", "value": "Active; Much Better Activity Observed"}, {"measurement": "Activity", "setting": "[12]", "value": "Non-toxic"}, {"measurement": "Activity", "setting": "[13]", "value": "Non-toxic"}, {"measurement": "Activity", "setting": "[14]", "value": "Non-toxic"}, {"measurement": "Activity", "setting": "[15]", "value": "Non-toxic"}, {"measurement": "Activity", "setting": "HT-29 [16]", "value": "Dose-dependent-effect"}, {"measurement": "Cmax", "setting": "[17]", "value": 65.1, "unit": "ng/mL"}, {"measurement": "Survival", "setting": "HT-29 [18]", "value": 9, "unit": "h"}, {"measurement": "Activity", "setting": "HT-29 [19]", "value": "inactive"}, {"measurement": "Activity", "setting": "Mus musculus [20]", "value": "Dose-dependent-effect"}, {"measurement": "Activity", "setting": "[21]", "value": "Non-toxic"}, {"measurement": "Activity", "setting": "HT-29 [22]", "value": "Active"}, {"measurement": "Activity", "setting": "HT-29 [23]", "value": "Active"}, {"measurement": "inhibition", "setting": "HeLa [24]", "value": "Active"}, {"measurement": "inhibition", "setting": "[25]", "value": "Dose-dependent-effect"}, {"measurement": "Activity", "setting": "HT-29 [26]", "value": "Active"}, {"measurement": "Activity", "setting": "HeLa [27]", "value": "Active"}, {"measurement": "Activity", "setting": "HT-29 [28]", "value": "Active"}, {"measurement": "inhibition at 10 µM", "setting": "[29]", "value": 100, "unit": "%"}, {"measurement": "Activity", "setting": "HT-29 [30]", "value": "Active"}, {"measurement": "Activity", "setting": "[31]", "value": "Non-toxic"}, {"measurement": "inhibition", "setting": "HeLa [32]", "value": "Active"}, {"measurement": "Activity", "setting": "[33]", "value": "Non-toxic"}]}
